In BindingDB's records for doi:10.1016/j.bmcl.2018.09.032 (Shionogi, 2018):

Assay: Transrepression of RORgammat in anti-CD3/CD28 stimulated human PBMC derived CD4-positive T cells assessed as suppression of T cell differentiation to Th17 cells by measuring reduction in IL-17A level after 7 days by flow cytometry analysis

| SMILES | IC50 |
| --- | --- |
| CCS(=O)(=O)c1ccc(CC(=O)Nc2ccc(C(C)(C)C(=O)Nc3ccc(F)cc3F)c(F)c2)cc1 | 13 nM |
| CCS(=O)(=O)c1ccc(CC(=O)Nc2ccc(C(C)(C)C(=O)Nc3ccc(F)cc3F)cc2)cc1 | 36 nM |
